We go through 11 compounds from ChEMBL document CHEMBL1201862, “PubChem BioAssay data set” (2004).

The structures appear in SMILES notation.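 In this assay, cells in 96-well plates receive the compound at five concentrations for 48 hours. Endpoints are linearly interpolated between the surrounding concentrations. GI50 = concentration required for 50% inhibition of growth.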 Activity calls are given as the source filed them. Rule as the data show it: active = GI50 up to about 1.1 µM and inactive = higher. Non-standard residues stand in square brackets, D forms with d. Residues, ends and D or L forms follow the SMILES beside them. *: point of attachment. Phe(4-NO2) = N[CH](Cc1ccc([N+](=O)[O-])cc1)C(=O)O; Boc = CC(C)(C)OC(=O)* A value given as a limit tells only on which side of the number the result lay.

Among the test systems are SW-620; HCC 2998; EKVX; SK-OV-3; DU-145; OVCAR-5; HCT-15; HL-60; NCI/ADR-RES; A549; OVCAR-8; HCT-116; PC-3; NCI-H226; NCI-H460; SF-295; HT-29; CCRF-CEM; BT-549; RPMI-8226.
What all share (assay): growth of human tumour cells (NCI), 48 h

For `OC1NC2Nc3ccccc3NC2NC1O` (configuration not stated), the GI50 in the experiment on SW-620, with HCC 2998, in the experiment on EKVX, with SK-OV-3, in the experiment on DU-145 and in the experiment with OVCAR-5 was > 100 µM (inactive) throughout. Besides, the GI50 was above 100 µM in the experiment on HCT-15; > 100 µM (inactive) with HL-60; > 100 µM (inactive) in the experiment on NCI/ADR-RES; > 100 µM (inactive) in the experiment with A549; > 100 µM (inactive) in the experiment on OVCAR-8; > 100 µM (inactive) in the experiment on HCT-116. Also, the GI50 with PC-3, in the experiment with NCI-H226, in the experiment on NCI-H460, in the experiment with SF-295, with HT-29 and in the experiment on CCRF-CEM was > 100 µM (inactive) each time.

For the compound `C=C1C(=O)OC2CC(C)C3C=CC(=O)C3CC12` (configuration not stated), the GI50 in the experiment with SW-620 was 0.998 µM (active); with HCC 2998 it was 4.73 µM (inactive); in the experiment with EKVX it was 12.1 µM (inactive); in the experiment on SK-OV-3, 16.1 µM (inactive); in the experiment on DU-145, 5.41 µM (inactive); with OVCAR-5 it was 3.29 µM (inactive). Further, the GI50 is 1.85 µM with HCT-15; 0.891 µM (active) in the experiment with HL-60; 7.93 µM (inactive) with A549; 2.94 µM (inactive) in the experiment with OVCAR-8; 1.26 µM (inactive) in the experiment on HCT-116; 2.37 µM (inactive) in the experiment with PC-3. The GI50 in the experiment on NCI-H226 is 2.64 µM (inactive); in the experiment with BT-549 it was 2.64 µM (inactive); in the experiment on NCI-H460, 2.96 µM (inactive); in the experiment on SF-295 it was 14.6 µM (inactive); in the experiment with HT-29, 1.72 µM (inactive); in the experiment with CCRF-CEM it was 0.428 µM (active). The GI50 with RPMI-8226 was 1.71 µM (inactive).

On to `C/C(=N\Nc1nc2ccccc2n1C)c1ccncn1`, for which the GI50 is < 0.018 µM (active) in the experiment on SW-620; 3.39 µM (inactive) in the experiment on HCC 2998; < 0.02 µM (active) in the experiment with EKVX; 0.182 µM (active) in the experiment on SK-OV-3; 1.52 µM (inactive) in the experiment on OVCAR-5; below 0.0186 µM in the experiment on HCT-15. In addition, the GI50 in the experiment with HL-60 was < 0.01 µM (active); in the experiment on NCI/ADR-RES, 0.0395 µM (active); in the experiment with A549, 0.128 µM (active); with OVCAR-8, < 0.0238 µM (active); in the experiment on HCT-116, < 0.01 µM (active); with NCI-H226, 0.29 µM (active). Further, the GI50 was 5.6 µM (inactive) in the experiment on BT-549; 0.23 µM (active) in the experiment with NCI-H460; 0.476 µM (active) with SF-295; < 0.0259 µM (active) in the experiment on HT-29; 0.0618 µM (active) in the experiment on CCRF-CEM; 0.0202 µM (active) in the experiment with RPMI-8226.

For the compound `N#Cc1nc(Cc2cccs2)oc1N`, the GI50 in the experiment with SW-620 was > 100 µM (inactive); in the experiment with EKVX it was > 100 µM (inactive); with SK-OV-3, > 100 µM (inactive); with DU-145 it was > 100 µM (inactive); in the experiment with OVCAR-5, > 100 µM (inactive); in the experiment with HCT-15, above 100 µM. The GI50 with HL-60, in the experiment with A549, in the experiment on OVCAR-8, with HCT-116, in the experiment with PC-3 and in the experiment with HT-29 was > 100 µM (inactive) each time. In addition, the values for the GI50 with CCRF-CEM and in the experiment with RPMI-8226 were 47.5 µM (inactive) and > 100 µM (inactive), respectively.

Turning to `O=C1C/C(=C\c2ccccc2)C(=O)c2ccccc2N1`, the GI50 in the experiment on SW-620 was 19.5 µM (inactive); with HCC 2998, 19 µM (inactive); in the experiment with EKVX, 24.1 µM (inactive); with SK-OV-3 it was 35.2 µM (inactive); with DU-145 it was 32.5 µM (inactive); with OVCAR-5, 20 µM (inactive). Besides, the GI50 was 24.7 µM in the experiment with HCT-15; 20.8 µM (inactive) in the experiment on HL-60; 23.6 µM (inactive) in the experiment on NCI/ADR-RES; 25.5 µM (inactive) in the experiment on A549; 18.8 µM (inactive) with OVCAR-8; 14.7 µM (inactive) in the experiment with HCT-116. Besides, the GI50 was 23.9 µM (inactive) in the experiment with PC-3; 24.3 µM (inactive) with NCI-H226; 29.3 µM (inactive) in the experiment with NCI-H460; 17.4 µM (inactive) in the experiment on SF-295; 18.4 µM (inactive) in the experiment on HT-29; 16.7 µM (inactive) with CCRF-CEM.

For the compound `CCC(C)C1=C(O)[N+]2([O-])Oc3ccc(-c4c(O)c(O)c(-c5ccc(O)cc5)c(OC(C)=O)c4OC(C)=O)cc3OC2(C(C)CC)C(=O)N1O` (configuration not stated), the GI50 was > 50 µM (inactive) in the experiment on SW-620; 0.005 µM (active) in the experiment with HCC 2998; 39.5 µM (inactive) in the experiment with EKVX; > 50 µM (inactive) in the experiment with SK-OV-3; > 50 µM (inactive) in the experiment with DU-145; > 50 µM (inactive) in the experiment with OVCAR-5. For the same compound, the GI50 with HCT-15 is above 50 µM; in the experiment with HL-60, > 50 µM (inactive); in the experiment with NCI/ADR-RES, > 50 µM (inactive); with A549, > 50 µM (inactive); with OVCAR-8 it was > 50 µM (inactive); with HCT-116, 18.2 µM (inactive). The GI50 in the experiment with PC-3 is > 50 µM (inactive); in the experiment with NCI-H226, > 50 µM (inactive); in the experiment with NCI-H460, > 50 µM (inactive); in the experiment on SF-295 it was > 50 µM (inactive); in the experiment with HT-29, > 50 µM (inactive); in the experiment on CCRF-CEM it was 1.88 µM (inactive). Also, in the experiment with RPMI-8226, the GI50 was > 50 µM (inactive).

For the compound `COc1cc(/C=C2/SC(c3ccccc3)N(Cc3ccccc3)C2=O)cc(OC)c1OC` (configuration not stated), the GI50 with SW-620 was 63.2 µM (inactive); in the experiment on HCC 2998, 80.5 µM (inactive); in the experiment on EKVX, 42.9 µM (inactive); with SK-OV-3 it was 41.1 µM (inactive); in the experiment on DU-145 it was 42.7 µM (inactive); in the experiment with OVCAR-5, 80.9 µM (inactive). Moreover, the GI50 in the experiment with HCT-15 was 38.7 µM; in the experiment on NCI/ADR-RES it was 35 µM (inactive); in the experiment with A549, 67 µM (inactive); in the experiment on OVCAR-8, 37.7 µM (inactive); in the experiment on HCT-116 it was 14.9 µM (inactive); in the experiment with NCI-H226, 53.7 µM (inactive). Moreover, the GI50 is 39 µM (inactive) in the experiment with BT-549; 38.2 µM (inactive) with NCI-H460; 30.6 µM (inactive) in the experiment on SF-295; 25.9 µM (inactive) in the experiment on HT-29; 14.4 µM (inactive) with RPMI-8226.

On to `CCOP(=O)(OCC)[C@]12C[C@@H](C)C=C[C@H]1COC2=O`, for which the GI50 in the experiment on SW-620, in the experiment on HCC 2998, with EKVX, in the experiment with SK-OV-3, with DU-145 and in the experiment on OVCAR-5 was > 100 µM (inactive) throughout. Further, the GI50 in the experiment with A549, in the experiment on OVCAR-8, in the experiment with HCT-116, in the experiment on PC-3, with BT-549 and with NCI-H460 was > 100 µM (inactive) throughout. The GI50 with SF-295, with CCRF-CEM and in the experiment with RPMI-8226 was > 100 µM (inactive) in each case.

As to `COC(=O)CCC(NC(=O)OC(C)(C)C)C(=O)NC(Cc1ccc([N+](=O)[O-])cc1)C(=O)NC(CCC(=O)OC)C(=O)OC` (configuration not stated) (Boc-Glu(OMe)-[Phe(4-NO2)]-Glu(OMe)-OMe; configuration not given here), the GI50 in the experiment on SW-620, in the experiment on HCC 2998, with EKVX, with SK-OV-3, with DU-145 and with OVCAR-5 was > 100 µM (inactive) in each case. Also, the GI50 was above 100 µM in the experiment on HCT-15; > 100 µM (inactive) in the experiment with NCI/ADR-RES; > 100 µM (inactive) with A549; > 100 µM (inactive) in the experiment on OVCAR-8; > 100 µM (inactive) in the experiment on HCT-116; > 100 µM (inactive) in the experiment with PC-3. The GI50 is 74.8 µM (inactive) in the experiment with NCI-H226; 60.3 µM (inactive) in the experiment on NCI-H460; > 100 µM (inactive) with SF-295; 87.3 µM (inactive) in the experiment on HT-29; 12.3 µM (inactive) with CCRF-CEM; 27 µM (inactive) in the experiment on RPMI-8226.

`Cn1c2ccccc2c(=O)c2c(O)cc3c(c21)C1OCC(C)(O)C1O3` (configuration not stated): the GI50 with SW-620 was 80 µM (inactive); in the experiment with HCC 2998, > 100 µM (inactive); with EKVX, 7.48 µM (inactive); with SK-OV-3 it was 37.2 µM (inactive); in the experiment with DU-145, 29.2 µM (inactive); in the experiment on OVCAR-5, 19.5 µM (inactive). Moreover, the GI50 in the experiment with HCT-15 is 53.3 µM; with HL-60, 81.5 µM (inactive); in the experiment with NCI/ADR-RES, 42.9 µM (inactive); with A549, 61.8 µM (inactive); with OVCAR-8 it was 34 µM (inactive); in the experiment on HCT-116 it was 37.8 µM (inactive). The GI50 in the experiment with PC-3 is 44.7 µM (inactive); in the experiment on NCI-H226, 10.5 µM (inactive); with NCI-H460, > 10 µM (inactive); with HT-29, 31.8 µM (inactive); with CCRF-CEM, 23.8 µM (inactive); in the experiment with RPMI-8226 it was 85.7 µM (inactive).

In the case of `C#CCNC(Cc1c[nH]cn1)C(=O)O` (configuration not stated), the GI50 is > 100 µM (inactive) with SW-620; > 100 µM (inactive) with EKVX; > 100 µM (inactive) with SK-OV-3; > 100 µM (inactive) with DU-145; > 100 µM (inactive) with OVCAR-5; above 100 µM in the experiment on HCT-15. For the same compound, the GI50 with HL-60 is 89.3 µM (inactive); with NCI/ADR-RES it was > 100 µM (inactive); with A549 it was > 100 µM (inactive); in the experiment on OVCAR-8, > 100 µM (inactive); with HCT-116, > 100 µM (inactive); with PC-3, > 100 µM (inactive). The GI50 in the experiment with NCI-H226, in the experiment with NCI-H460, with SF-295, with HT-29, in the experiment with CCRF-CEM and in the experiment with RPMI-8226 was > 100 µM (inactive) in each case.
